Tested on: MOLM13 cells
Test: Growth inhibition of CDK9-positive cell line MOLM13 in vitro (CCK8/MTT assay)
Assay type: cell-based, human
Settings: Homo sapiens, MOLM-13, read-out: IC50 of the compound for inhibiting cell growth, MOLM13 cells
Experimental: 1. MOLM13 cell line and cell culture MOLM13 is a CDK9-positive human acute myeloid leukemia cell line from DMSZ. Suspension culture was carried out in RPMI1640 (Gibco) medium with 10% fetal bovine serum (Gibco), 1% penicillin-streptomycin and 2 mM glutamine.
Suspended MOLM-13 cells in logarithmic growth phase were collected by centrifugation (1700 rpm, 3 minutes), the supernatant was discarded, and the cells were counted. A solution with a cell concentration of 2×10^5 cells per milliliter was formulated and inoculated in a 96-well plate (Corning) with 100 microliters per well. The plate was incubated at 37° C., 5% CO2 overnight. On the next day, the test compound was added to the cultured cells in two parallel wells. […]
The present compound and the control compounds were respectively dissolved in DMSO (Sigma).
When the solvent control well became dark yellow, the OD450 nm absorption value was measured, and the cell growth rate was calculated according to the following formula. Cell growth rate %=100*(T−T0)/(C−T0), wherein T=the optical density value of the drug-treated well—the optical density value of the blank control well, T0=the optical density value of the well before drug treatment—the optical density value of the blank control well, C=the optical density value of the solvent control well—the optical density value of the blank control well. […] The assay was repeated three times, and the data was subjected to a biological statistical analysis.

Compound `CN1CCN(CCN(C)c2ccc(Nc3nccc(-n4cc(C(N)=O)c5ccccc54)n3)cc2)CC1` [Compound 73, 1-[2-(4-{methyl-[2-(4-methyl-piperazin-1-yl)-ethyl]-amino}-phenylamino)-pyrimidin-4-yl]-1H-indole-3-carboxamide] has an IC50 of 1 to 10 nM.

Same assay, conditions: Homo sapiens, MOLM-13; MOLM13 cells, cultured 3 to 6 days, CCK8; read-out: IC50 of the compound for inhibiting cell growth, MOLM13 cells

`CN1CCN(c2ccc(Nc3ncc(F)c(-n4cc(C(N)=O)c5ccccc54)n3)cc2F)CC1` [Compound 54, 1-{5-fluoro-2-[3-fluoro-4-(4-methyl-piperazin-1-yl)-phenylamino]-pyrimidin-4-yl}-1H-indole-3-carboxamide] and `CN1CCN(c2ccc(Nc3ncc(Cl)c(-n4cc(C(N)=O)c5ccccc54)n3)cc2F)CC1` [Compound 61, 1-{5-chloro-2-[3-fluoro-4-(4-methyl-piperazin-1-yl)-phenylamino]-pyrimidin-4-yl}-1H-indole-3-carboxamide] fall in the same range of IC50: 1 to 10 nM for the first, 1 to 10 nM for the second.

First: CCN1CCN(c2ccc(Nc3ncc(F)c(-n4cc(C(N)=O)c5ccccc54)n3)cc2C)CC1 [Compound 57, 1-{2-[4-(4-ethyl-piperazin-1-yl)-3-methyl-phenylamino]-5-fluoro-pyrimidin-4-yl}-1H-indole-3-carboxamide]
Second: CCN1CCN(c2ccc(Nc3ncc(Cl)c(-n4cc(C(N)=O)c5ccccc54)n3)cc2C)CC1 [Compound 58, 1-{5-chloro-2-[4-(4-ethyl-piperazin-1-yl)-3-methyl-phenylamino]-pyrimidin-4-yl}-1H-indole-3-carboxamide]
The IC50 of the first is higher: 1 to 10 nM for the first, under 1 nM for the second.

First: Cc1cc(Nc2ncc(F)c(-n3cc(C(N)=O)c4ccccc43)n2)ccc1N1CCN(C(C)C)CC1 [Compound 59, 1-{5-fluoro-2-[4-(4-isopropyl-piperazin-1-yl)-3-methyl-phenylamino]-pyrimidin-4-yl}-1H-indole-3-carboxamide]
Second: C=CC(=O)N1CCN(c2ccc(Nc3nccc(-n4cc(C(N)=O)c5ccccc54)n3)cc2C)CC1 [Compound 64, 1-{2-[4-(4-acryloyl-piperazin-1-yl)-3-methyl-phenylamino]-pyrimidin-4-yl}-1H-indole-3-carboxamide]
The IC50 of the first is lower: 1 to 10 nM for the first, 10 to 100 nM for the second.

`CN1CCC(N2CCN(c3ccc(Nc4nccc(-n5cc(C(N)=O)c6ccccc65)n4)cc3F)CC2)CC1` [Compound 62, 1-(2-{3-fluoro-4-[4-(1-methyl-piperidin-4-yl)-piperazin-1-yl]-phenylamino}-pyrimidin-4-yl)-1H-indole-3-carboxamide] and `CC(=O)N1CCN(c2ccc(Nc3nccc(-n4cc(C(N)=O)c5ccccc54)n3)cc2F)CC1` [Compound 66, 1-{2-[4-(4-acetyl-piperazin-1-yl)-3-fluoro-phenylamino]-pyrimidin-4-yl}-1H-indole-3-carboxamide] fall in the same range of IC50: 10 to 100 nM for the first, 10 to 100 nM for the second.

Compared with `CN(C)CCN1CCN(c2ccc(Nc3nccc(-n4cc(C(N)=O)c5ccccc54)n3)cc2F)CC1` [Compound 63, 1-(2-{4-[4-(2-dimethylamino-ethyl)-piperazin-1-yl]-3-fluoro-phenylamino}-pyrimidin-4-yl)-1H-indole-3-carboxamide], `NC(=O)c1cn(-c2ccnc(Nc3ccc(N4CCOCC4)c(F)c3)n2)c2ccccc12` [Compound 71, 1-[2-(3-fluoro-4-morpholin-4-yl-phenylamino)-pyrimidin-4-yl]-1H-indole-3-carboxamide] is higher in IC50: 1 to 10 nM for the first, 10 to 100 nM for the second.

First: CCC(=O)N1CCN(c2ccc(Nc3nccc(-n4cc(C(N)=O)c5ccccc54)n3)cc2C)CC1 [Compound 65, 1-{2-[3-methyl-4-(4-propionyl-piperazin-1-yl)-phenylamino]-pyrimidin-4-yl}-1H-indole-3-carboxamide]
Second: Cc1cc(Nc2nccc(-n3cc(C(N)=O)c4ccccc43)n2)ccc1N1CCC(N(C)C)CC1 [Compound 68, 1-{2-[4-(4-dimethylamino-piperidin-1-yl)-3-methyl-phenylamino]-pyrimidin-4-yl}-1H-indole-3-carboxamide]
The IC50 of the first is higher: 10 to 100 nM for the first, 1 to 10 nM for the second.

`COC1CCN(c2ccc(Nc3nccc(-n4cc(C(N)=O)c5ccccc54)n3)cc2)CC1` [Compound 67, 1-{2-[4-(4-methoxy-piperidin-1-yl)-phenylamino]-pyrimidin-4-yl}-1H-indole-3-carboxamide] and `NC(=O)c1cn(-c2ccnc(Nc3ccc(N4CCOCC4)cc3)n2)c2ccccc12` [Compound 70, 1-[2-(4-morpholin-4-yl-phenylamino)-pyrimidin-4-yl]-1H-indole-3-carboxamide] fall in the same range of IC50: 10 to 100 nM for the first, 10 to 100 nM for the second.

First: CN1CCCN(c2ccc(Nc3nccc(-n4cc(C(N)=O)c5ccccc54)n3)cc2)CC1 [Compound 69, 1-{2-[4-(4-methyl-[1,4]homopiperazin-1-yl)-phenylamino]-pyrimidin-4-yl}-1H-indole-3-carboxamide]
Second: CN(CCN1CCOCC1)c1ccc(Nc2nccc(-n3cc(C(N)=O)c4ccccc43)n2)cc1 [Compound 72, 1-(2-{4-[methyl-(2-morpholin-4-ethyl)-amino]-phenylamino}-pyrimidin-4-yl)-1H-indole-3-carboxamide]
The IC50 of the first is lower: 1 to 10 nM for the first, 10 to 100 nM for the second. The first is the more potent here.

`CC(=O)N1CCN(CCN(C)c2ccc(Nc3nccc(-n4cc(C(N)=O)c5ccccc54)n3)cc2)CC1` [Compound 74] and `CN(C)CCN(C)c1ccc(Nc2nccc(-n3cc(C(N)=O)c4ccccc43)n2)cc1` [Compound 77, 1-(2-{4-[(2-dimethylamino-ethyl)-methyl-amino]-phenylamino}-pyrimidin-4-yl)-1H-indole-3-carboxamide] fall in the same range of IC50: 10 to 100 nM for the first, 10 to 100 nM for the second.

Compared with `CN(C)c1ccc(Nc2nccc(-n3cc(C(N)=O)c4ccccc43)n2)cc1` [Compound 75, 1-[2-(4-dimethylamino-phenylamino)-pyrimidin-4-yl]-1H-indole-3-carboxamide], `CN(C)CCCN(C)c1ccc(Nc2nccc(-n3cc(C(N)=O)c4ccccc43)n2)cc1` [Compound 76, 1-(2-{4-[(3-dimethylamino-propyl)-methyl-amino]-phenylamino}-pyrimidin-4-yl)-1H-indole-3-carboxamide] is lower in IC50: 100 to 1000 nM for the first, 10 to 100 nM for the second.

First: CN(C)CCN(C)c1ccc(Nc2nccc(-n3cc(C(N)=O)c4ccccc43)n2)c(Br)c1 [Compound 78, 1-(2-{2-bromo-4-[(2-dimethylamino-ethyl)-methyl-amino]-phenylamino}-pyrimidin-4-yl)-1H-indole-3-carboxamide]
Second: Cc1cc(Nc2nccc(-n3cc(C(N)=O)c4ccccc43)n2)ccc1N(C)CCN(C)C [Compound 79, 1-(2-{4-[(2-dimethylamino-ethyl)-methyl-amino]-3-methyl-phenylamino}-pyrimidin-4-yl)-1H-indole-3-carboxamide]
The IC50 of the first is higher: 100 to 1000 nM for the first, 1 to 10 nM for the second. The second is the more potent here.

`COc1cc(Nc2nccc(-n3cc(C(N)=O)c4ccccc43)n2)ccc1N(C)CCN(C)C` [Compound 80, 1-(2-{4-[(2-dimethylamino-ethyl)-methyl-amino]-3-methoxy-phenylamino}-pyrimidin-4-yl)-1H-indole-3-carboxamide] and `CC(C)Oc1cc(Nc2nccc(-n3cc(C(N)=O)c4ccccc43)n2)ccc1N(C)CCN(C)C` [Compound 81, 1-(2-{4-[(2-dimethylamino-ethyl)-methyl-amino]-3-isopropoxy-phenylamino}-pyrimidin-4-yl)-1H-indole-3-carboxamide] fall in the same range of IC50: 1 to 10 nM for the first, 1 to 10 nM for the second.

With `CN(C)CCN(C)c1ccc(Nc2nccc(-n3cc(C(N)=O)c4ccccc43)n2)cc1Cl` [Compound 82, 1-(2-{3-chloro-4-[(2-dimethylamino-ethyl)-methyl-amino]-phenylamino}-pyrimidin-4-yl)-1H-indole-3-carboxamide] the IC50 was 10 to 100 nM.
